Reference: EP4799619A1, “COMPOUND TARGETING EGR-1 AND USE THEREOF FOR TREATMENT OF ATOPIC DERMATITIS” (AgeraMedi, Inc., priority 2023, dated 2025)

Target: EGR-1 (Homo sapiens, UniProt P18146)
Assay: EGR-1 DNA binding activity assay (EDBA)
Parameters: made in house
Conditions: EGR-1 DNA binding inhibitory activity; EGR-1 overexpressing cell lysate; absorbance at 450 nm; compound concentration not given
Experimental: In this experiment, the inhibitory effect of the compounds of the present invention on EGR-1 binding activity was evaluated using an EGR-1 DNA binding activity assay (EDBA).
Single-stranded sense and antisense oligonucleotides of the following EGR-1 binding sequence (EBS) were prepared by outsourcing to Bioneer Co., Ltd. (Daejeon, Korea). In this case, the 5'-end of the sense oligonucleotide was labeled with biotin. The sense and antisense oligonucleotides were heated at 95 °C for 5 minutes and then left overnight at room temperature to hybridize the sense and antisense oligonucleotides. Hereinafter, the hybridized sense and antisense oligonucleotides are referred to as biotin-EBS. • Sense sequence: biotin-5'-[…]-3' • Antisense sequence: 5'-[…]-3'
Avidin protein was coated on a 96-well plate (purchased from Thermo Fisher Scientific), and biotin-EBS was added to the plate at a concentration of 0.5 pmol/50 µL/well, followed by reaction at 37 °C for 1 hour to allow biotin-EBS oligonucleotide to be attached to the plate. After washing three times with phosphate buffer saline containing 0.05% Tween 20 (PBS/Tween 20) to remove unattached biotin-EBS oligonucleotides, 200 µL of PBS/Tween 20 solution containing 2% bovine serum albumin (BSA) was added to each well, followed by reaction at 37 °C for 1 hour to block the surface of the plate where no oligonucleotide was attached.
The solution containing the sample compound and the EGR-1 protein was added to the biotin-EBS oligonucleotide coated plate prepared in step (2).
The compound sample (1 µL) was reacted with the EGR-1 overexpressing cell lysate containing 10 mM Tris, pH 7.5, 50 mM KCl, 2% BSA and 8% glycerol at room temperature for 30 minutes, and then added to a reaction well coated with biotin-EBS and further reacted at room temperature for one hour. After washing three times with PBS/Tween 20 solution, an EGR-1 antibody was added to the PBS solution supplemented with 2% BSA and 5 mM NaCl in an amount of 50 µL per each well. The mixture was incubated at room temperature for one hour, washed three times with PBS/Tween 20 solution, and then treated with horseradish peroxidase-conjugated secondary antibody (Goat anti-rabbit IgG antibody, Cell Signaling Technology company, Danvers, Mass., USA) diluted by 1:1000 at room temperature for one hour. After washing five times with PBS/Tween 20 solution, a substrate tetramethylbenzidine solution was added to each well in an amount of 50 µL. After reacting for 5 minutes, the reaction was stopped by adding 100 µL of 2 N sulfuric acid solution. The DNA binding inhibitory activity of EGR-1 was measured by absorbance at 450 nm according to Equation 1 below. EGR-1 DNA binding inhibitory activity (%) = 100−{(As/Ap)×100} [formula]
As: absorbance of a sample prepared by reacting an EGR-1-overexpressing cell lysate with the compound.
Ap: absorbance of the sample treated only with EGR-1-overexpressing cell lysate.

EGR-1, sequence (P18146 whole entry): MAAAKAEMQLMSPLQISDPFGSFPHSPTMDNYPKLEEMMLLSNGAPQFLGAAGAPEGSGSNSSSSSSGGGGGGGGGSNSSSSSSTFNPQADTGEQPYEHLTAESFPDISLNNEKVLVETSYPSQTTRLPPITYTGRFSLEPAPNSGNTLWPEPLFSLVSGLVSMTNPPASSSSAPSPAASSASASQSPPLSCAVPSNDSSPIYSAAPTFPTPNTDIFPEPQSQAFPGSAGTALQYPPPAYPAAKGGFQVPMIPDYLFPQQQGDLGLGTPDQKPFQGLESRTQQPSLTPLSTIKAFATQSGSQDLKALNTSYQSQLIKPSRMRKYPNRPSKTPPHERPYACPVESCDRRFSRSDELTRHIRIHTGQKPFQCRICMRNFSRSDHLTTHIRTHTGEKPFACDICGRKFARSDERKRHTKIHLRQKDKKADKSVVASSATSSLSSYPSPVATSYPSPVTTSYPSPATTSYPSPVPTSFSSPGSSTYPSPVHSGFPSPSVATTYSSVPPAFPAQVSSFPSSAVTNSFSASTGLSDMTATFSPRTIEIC

Row | SMILES | Inhibition Rate (%)
1 | COc1ccc2c(c1)NC(=O)/C2=N\NC(=S)Nc1ccc(C(F)(F)F)cc1 [Compound 26, (Z)-2-(6-methoxy-2-oxoindolin-3-ylidene)-N-(4-(trifluoromethyl)phenyl)hydrazinethioamide] | 49.67%
2 | CCNC(=S)N/N=C1\C(=O)Nc2cc(OC)ccc21 [Compound 27, (Z)-N-ethyl-2-(6-methoxy-2-oxoindolin-3-ylidene)hydrazinethioamide] | 44.00%
3 | COc1ccc2c(c1)NC(=O)/C2=N\NC(=S)Nc1cccc(C)c1 [Compound 28, (Z)-2-(6-methoxy-2-oxoindolin-3-ylidene)-N-(m-tolyl)hydrazinethioamide] | 28.67%
4 | Cc1ccc2c(c1)/C(=N/NC(=S)Nc1ccccc1)C(=O)N2 [Compound 29, (Z)-2-(5-methyl-2-oxoindolin-3-ylidene)-N-phenylhydrazinethioamide] | 27.50%
5 | Cc1ccc2c(c1)/C(=N/NC(=S)Nc1cccc([N+](=O)[O-])c1)C(=O)N2 [Compound 30, (Z)-2-(5-methyl-2-oxoindolin-3-ylidene)-N-(3-nitrophenyl)hydrazinethioamide] | 32.70%
6 | COc1ccccc1NC(=S)N/N=C1\C(=O)Nc2ccc(C)cc21 [Compound 31, (Z)-N-(2-methoxyphenyl)-2-(5-methyl-2-oxoindolin-3-ylidene)hydrazinethioamide] | 42.73%
7 | Cc1ccc2c(c1)/C(=N/NC(=S)Nc1cccc(C(F)(F)F)c1)C(=O)N2 [Compound 32, (Z)-2-(5-methyl-2-oxoindolin-3-ylidene)-N-(3-(trifluoromethyl)phenyl)hydrazinethioamide] | 40.93%
8 | Cc1ccc2c(c1)/C(=N/NC(=S)Nc1ccc(F)cc1)C(=O)N2 [Compound 33, (Z)-N-(4-fluorophenyl)-2-(5-methyl-2-oxoindolin-3-ylidene)hydrazinethioamide] | 37.77%
9 | NC(=S)N/N=C1\C(=O)Nc2ccc(Br)cc21 [Compound 34, (Z)-2-(5-bromo-2-oxoindolin-3-ylidene)hydrazinethioamide] | 46.00%
10 | O=C1Nc2cccc(Br)c2/C1=N/NC(=S)Nc1cccc([N+](=O)[O-])c1 [Compound 35, (Z)-2-(4-bromo-2-oxoindolin-3-ylidene)-N-(3-nitrophenyl)hydrazinethioamide] | 55.33%
11 | O=C1Nc2cc(Br)ccc2/C1=N/NC(=S)Nc1cccc([N+](=O)[O-])c1 [Compound 36, (Z)-2-(6-bromo-2-oxoindolin-3-ylidene)-N-(3-nitrophenyl)hydrazinethioamide] | 46.33%
12 | O=C1Nc2cccc(Br)c2/C1=N/NC(=S)Nc1ccc([N+](=O)[O-])cc1 [Compound 37, (Z)-2-(4-bromo-2-oxoindolin-3-ylidene)-N-(4-nitrophenyl)hydrazinethioamide] | 36.33%
13 | O=C1Nc2ccc(Br)cc2/C1=N/NC(=S)Nc1ccc([N+](=O)[O-])cc1 [Compound 38, (Z)-2-(5-bromo-2-oxoindolin-3-ylidene)-N-(4-nitrophenyl)hydrazinethioamide] | 51.33%
14 | COc1ccccc1NC(=S)N/N=C1\C(=O)Nc2ccccc21 [Compound 39, (Z)-N-(2-methoxyphenyl)-2-(2-oxoindolin-3-ylidene)hydrazinethioamide] | 47.33%
15 | NC(=S)N/N=C1\C(=O)Nc2cccc(Br)c21 [Compound 40, (Z)-2-(4-bromo-2-oxoindolin-3-ylidene)hydrazinethioamide] | 27.33%
16 | NC(=S)N/N=C1\C(=O)Nc2cc(Br)ccc21 [Compound 41, (Z)-2-(6-bromo-2-oxoindolin-3-ylidene)hydrazinethioamide] | 49.00%

Row | SMILES | Inhibition Rate (%)
17 | NC(=S)N/N=C1\C(=O)Nc2c(Br)cccc21 [Compound 42, (Z)-2-(7-bromo-2-oxoindolin-3-ylidene)hydrazinethioamide] | 53.00%
18 | O=C1Nc2cccc(Br)c2/C1=N/NC(=S)Nc1ccccc1 [Compound 43, (Z)-2-(4-bromo-2-oxoindolin-3-ylidene)-N-phenylhydrazinethioamide] | 23.00%
19 | O=C1Nc2ccc(Br)cc2/C1=N/NC(=S)Nc1ccccc1 [Compound 44, (Z)-2-(5-bromo-2-oxoindolin-3-ylidene)-N-phenylhydrazinethioamide] | 5.67%
20 | O=C1Nc2cc(Br)ccc2/C1=N/NC(=S)Nc1ccccc1 [Compound 45, (Z)-2-(6-bromo-2-oxoindolin-3-ylidene)-N-phenylhydrazinethioamide] | 9.33%
21 | O=C1Nc2c(Br)cccc2/C1=N/NC(=S)Nc1ccccc1 [Compound 46, (Z)-2-(7-bromo-2-oxoindolin-3-ylidene)-N-phenylhydrazinethioamide] | 11.33%
22 | O=C1Nc2ccccc2/C1=N/NC(=S)Nc1cccc([N+](=O)[O-])c1 [Compound 47, (Z)-N-(3-nitrophenyl)-2-(2-oxoindolin-3-ylidene)hydrazinethioamide] | 35.33%
23 | O=C1Nc2ccc(Br)cc2/C1=N/NC(=S)Nc1cccc([N+](=O)[O-])c1 [Compound 48, (Z)-2-(5-bromo-2-oxoindolin-3-ylidene)-N-(3-nitrophenyl)hydrazinethioamide] | 52.00%
24 | O=C1Nc2c(Br)cccc2/C1=N/NC(=S)Nc1cccc([N+](=O)[O-])c1 [Compound 49, (Z)-2-(7-bromo-2-oxoindolin-3-ylidene)-N-(3-nitrophenyl)hydrazinethioamide] | 50.33%
25 | COc1cccc(NC(=S)N/N=C2\C(=O)Nc3ccccc32)c1 [Compound 50, (Z)-N-(3-methoxyphenyl)-2-(2-oxoindolin-3-ylidene)hydrazinethioamide] | 27.33%
26 | COc1cccc(NC(=S)N/N=C2\C(=O)Nc3cccc(Br)c32)c1 [Compound 51, (Z)-2-(4-bromo-2-oxoindolin-3-ylidene)-N-(3-methoxyphenyl)hydrazinethioamide] | 28.67%
27 | COc1cccc(NC(=S)N/N=C2\C(=O)Nc3ccc(Br)cc32)c1 [Compound 52, (Z)-2-(5-bromo-2-oxoindolin-3-ylidene)-N-(3-methoxyphenyl)hydrazinethioamide] | 9.00%
28 | COc1ccc(NC(=S)N/N=C2\C(=O)Nc3ccccc32)cc1 [Compound 53, (Z)-N-(4-methoxyphenyl)-2-(2-oxoindolin-3-ylidene)hydrazinethioamide] | 10.00%
29 | COc1ccc(NC(=S)N/N=C2\C(=O)Nc3cccc(Br)c32)cc1 [Compound 54, (Z)-2-(4-bromo-2-oxoindolin-3-ylidene)-N-(4-methoxyphenyl)hydrazinethioamide] | 12.67%
30 | COc1ccc(NC(=S)N/N=C2\C(=O)Nc3ccc(Br)cc32)cc1 [Compound 55, (Z)-2-(5-bromo-2-oxoindolin-3-ylidene)-N-(4-methoxyphenyl)hydrazinethioamide] | 11.00%
31 | COc1ccc(NC(=S)NN)cc1OC [Compound 56, N-(3,4-dimethoxyphenyl)hydrazinethioamide] | 12.67%
32 | O=C1Nc2ccccc2/C1=N/NC(=S)Nc1ccc(F)cc1 [Compound 57, (Z)-N-(4-fluorophenyl)-2-(2-oxoindolin-3-ylidene)hydrazinethioamide] | 40.10%
